Data reported in US10669272B2, “Substituted naphthyridinone compounds useful as T cell activators” (BRISTOL-MYERS SQUIBB COMPANY, priority 2018, dated 2020).
Read-outs that look alike come from different tables or passages of the source.

Columns and labels:
human DGKζ = target: T1, human DGKζ (Homo sapiens, UniProt Q13574); assay: DGKζ LIPGLO assay (extruded liposome substrate), in vitro DGK inhibition; format: biochemical; conditions: read-out: DGKz LIPGLO IC50
T1 construct: TVMV protease cleavage site (C); Hexa-His (C); made in house; host or cells: Sf9 insect cells (baculovirus, Bac-to-Bac)
T1 sequence (Q13574 with tags, fused parts or gaps isoform Q13574-4): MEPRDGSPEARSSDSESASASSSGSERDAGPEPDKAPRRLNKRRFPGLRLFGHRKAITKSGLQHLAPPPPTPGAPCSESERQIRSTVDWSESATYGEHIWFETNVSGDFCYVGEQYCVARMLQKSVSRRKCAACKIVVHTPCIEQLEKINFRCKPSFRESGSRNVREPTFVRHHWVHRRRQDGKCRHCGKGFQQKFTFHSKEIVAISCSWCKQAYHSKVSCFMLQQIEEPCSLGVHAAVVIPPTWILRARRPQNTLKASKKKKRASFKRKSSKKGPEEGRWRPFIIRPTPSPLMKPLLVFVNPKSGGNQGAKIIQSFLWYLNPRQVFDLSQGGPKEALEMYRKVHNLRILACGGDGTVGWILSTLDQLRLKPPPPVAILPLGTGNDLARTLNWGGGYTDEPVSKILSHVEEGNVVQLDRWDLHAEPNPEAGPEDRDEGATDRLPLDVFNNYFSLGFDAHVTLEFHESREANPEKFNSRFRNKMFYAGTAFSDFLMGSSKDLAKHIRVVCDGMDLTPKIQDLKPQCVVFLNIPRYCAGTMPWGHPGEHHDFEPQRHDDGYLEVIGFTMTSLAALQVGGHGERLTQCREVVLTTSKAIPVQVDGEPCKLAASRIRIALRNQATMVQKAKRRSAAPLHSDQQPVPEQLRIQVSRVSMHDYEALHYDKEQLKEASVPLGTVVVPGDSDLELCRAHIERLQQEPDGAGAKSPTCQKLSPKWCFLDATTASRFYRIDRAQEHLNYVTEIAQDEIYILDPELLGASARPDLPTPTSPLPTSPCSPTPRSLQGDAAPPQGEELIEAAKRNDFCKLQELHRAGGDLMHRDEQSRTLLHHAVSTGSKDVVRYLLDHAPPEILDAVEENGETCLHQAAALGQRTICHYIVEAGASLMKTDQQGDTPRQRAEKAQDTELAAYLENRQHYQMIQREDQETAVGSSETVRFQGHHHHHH

Human venous whole blood = assay: Human whole blood IFN-γ assay; format: cell-based; conditions: human whole blood, read-out: INFg Whole Blood Normalized Agonist EC50;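 further: blood from healthy donors exposed to compound for 1 h before stimulation with anti-CD3 and anti-CD28 at 1 µg/mL each, IFN-γ quantified in supernatant by AlphaLISA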
Protocol: Human Whole Blood IFN-γ Assay
Human venous whole blood (22.5 μL per well), obtained from healthy donors, was pre-treated with compounds for one hour at 37° C. in a humidified 95% air/5% CO2 incubator. The blood was stimulated with 2.5 μL anti-human CD3 and anti-CD28 mAb at a final concentration of 1 μg/mL each for 24 hours at 37° C. IFN-γ in the supernatants was measured using AlphLISA kit (Cat # AL217).

human DGKα = target: T2, human DGKα (Homo sapiens, UniProt P23743); assay: DGKα LIPGLO assay (extruded liposome substrate), in vitro DGK inhibition; format: biochemical; conditions: read-out: DGKa LIPGLO IC50
T2 construct: TVMV protease cleavage site (C); Hexa-His (C); made in house; host or cells: Sf9 insect cells (baculovirus, Bac-to-Bac)
T2 sequence (P23743 with tags, fused parts or gaps): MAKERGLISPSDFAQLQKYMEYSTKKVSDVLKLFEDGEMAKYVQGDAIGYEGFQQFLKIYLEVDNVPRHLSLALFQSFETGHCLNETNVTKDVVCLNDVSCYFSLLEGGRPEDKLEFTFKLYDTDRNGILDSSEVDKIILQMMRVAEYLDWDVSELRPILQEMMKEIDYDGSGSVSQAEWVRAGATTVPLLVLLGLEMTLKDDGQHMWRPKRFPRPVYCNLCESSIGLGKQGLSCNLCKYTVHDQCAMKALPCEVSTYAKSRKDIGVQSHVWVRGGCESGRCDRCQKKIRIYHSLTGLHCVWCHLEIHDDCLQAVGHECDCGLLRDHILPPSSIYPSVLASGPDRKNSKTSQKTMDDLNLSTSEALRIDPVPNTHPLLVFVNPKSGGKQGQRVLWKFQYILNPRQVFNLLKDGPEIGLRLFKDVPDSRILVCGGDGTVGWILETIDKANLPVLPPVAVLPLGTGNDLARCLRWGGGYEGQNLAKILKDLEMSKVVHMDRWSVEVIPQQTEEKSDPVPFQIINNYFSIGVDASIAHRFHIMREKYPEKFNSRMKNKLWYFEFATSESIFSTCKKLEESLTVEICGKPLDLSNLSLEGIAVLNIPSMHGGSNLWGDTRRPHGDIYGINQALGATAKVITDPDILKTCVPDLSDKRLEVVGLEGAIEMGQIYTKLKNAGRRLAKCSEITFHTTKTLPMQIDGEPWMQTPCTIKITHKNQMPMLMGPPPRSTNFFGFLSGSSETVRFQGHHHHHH

[1] = normalized to 3 μM reference compound with anti-CD3 plus anti-CD28 as 100% activation
[2] = anti-CD3 plus anti-CD28, 24 hours, 3 μM reference compound = 100% activation
[3] = Homo sapiens, 24 h, normalized to 3 μM reference compound with anti-CD3 plus anti-CD28 as 100% activation

Row | Compound | IC50 (human DGKζ; liposome (LIPGLO) assay) [µM] | EC50 (Human venous whole blood; [1]) [µM] | IC50 (human DGKα; liposome (LIPGLO) assay) [µM] | IC50 (human DGKζ; DGKζ liposome (LIPGLO) assay) [µM] | EC50 (Human venous whole blood; [2]) [µM] | IC50 (human DGKα; DGKα liposome (LIPGLO) assay) [µM] | EC50 (Human venous whole blood; [3]) [µM]
1 | CC(c1ccc(C(F)(F)F)cc1)N1C[C@@H](C)N(c2cc(=O)n(C)c3ccc(C#N)nc23)C[C@@H]1C (single isomer, unassigned) [Example 345] | 33 | 6.8 | 4 |  |  |  | 
2 | C[C@@H]1CN(c2c(C#N)c(=O)n(C)c3ccc(C#N)nc23)CCN1C(c1ccc(F)cc1)c1ccc(C#N)cn1 (single isomer, unassigned) [Example 908] |  |  |  | 3.9 | 1.4 | 0.77 | 
3 | C[C@@H]1CN(c2cc(=O)n(C)c3ccc(C#N)nc23)[C@@H](C)CN1C(c1ccc(OC(F)(F)F)cc1F)C1CC1 (single isomer, unassigned) [Example 480] | 1.8 |  | 1.6 |  |  |  | 4.9
4 | CC(c1cc(C2CC2)on1)N1C[C@H](C)N(c2cc(=O)n(C)c3ccc(C#N)nc23)C[C@H]1C (single isomer, unassigned) [Example 1282] | 2.1 | 5.2 | 1.4 |  |  |  | 
5 | C[C@@H]1CN(c2cc(=O)n(C)c3ccc(C#N)nc23)[C@@H](C)CN1C(c1ccc(F)cc1)c1nccs1 (single isomer, unassigned) [Example 712] | 0.72 | 2.8 | 0.32 |  |  |  | 
6 | C[C@@H]1CN(c2cc(=O)n(C)c3ccc(C#N)nc23)[C@@H](C)CN1C(c1ccc(F)cc1)c1ccon1 (single isomer, unassigned) [Example 706] | 12 | 2.9 | 1.3 |  |  |  | 
7 | CC(c1ccc(F)cc1)N1C[C@@H](C)N(c2cc(=O)n(C)c3ccc(C#N)nc23)C[C@@H]1CO (single isomer, unassigned) [Example 1178] | 0.72 | 3.1 | 43 |  |  |  | 
8 | C[C@@H]1CN(c2cc(=O)n(C)c3ccc(C#N)nc23)[C@@H](C)CN1C(c1ccc(F)cc1)c1cncn1C (stereo partly drawn) [Example 704] | 46 |  | 86 |  |  |  | 17
9 | CC(C)Oc1ccc(C(C)N2C[C@H](C)N(c3cc(=O)n(C)c4ccc(C#N)nc34)C[C@H]2C)cn1 (single isomer, unassigned) [Example 1324] | 0.14 | 0.69 | 12 |  |  |  | 
10 | C[C@@H]1CN(C(c2ccc(F)cc2)c2ccc(Cl)cc2)[C@@H](CO)CN1c1cc(=O)n(C)c2ccc(C#N)nc12 (stereo partly drawn) [Example 1175] | 1 |  | 21 |  |  |  | 20
11 | CC(c1ccc(OC(F)(F)F)cc1)N1C[C@H](C)N(c2cc(=O)n(C)c3ccc(C#N)nc23)C[C@H]1CO (single isomer, unassigned) [Example 1387] | 12 | 20 | 2.6 |  |  |  | 
12 | CC[C@@H]1CN(c2cc(=O)n(C)c3ccc(C#N)nc23)[C@@H](C)CN1Cc1c(F)cc(F)cc1F [Example 1080] | 0.69 |  | 0.64 |  |  |  | 0.24
13 | C[C@@H]1CN(c2cc(=O)n(C)c3ccc(C#N)nc23)[C@@H](C)CN1C(c1ccc(F)cc1)c1cncnc1 (single isomer, unassigned) [Example 393] | 7.1 | 3.5 | 1.6 |  |  |  | 
14 | C[C@@H]1CN(c2c(F)c(=O)n(C)c3ccc(C#N)nc23)[C@@H](C)CN1C(c1ccc(F)cc1)c1c(F)cccc1F (single isomer, unassigned) [Example 336] | 0.23 | 2 | 0.74 |  |  |  | 
15 | C[C@@H]1CN(c2c(C#N)c(=O)n(C)c3ccc(C#N)nc23)CCN1C(c1ccc(F)cc1)c1cnn(C)c1 (stereo partly drawn) [Example 1017] |  |  |  | 8.4 | 3.3 | 7.2 | 
16 | CC[C@@H]1CN(c2cc(=O)n(C)c3ccc(C#N)nc23)[C@@H](C)CN1Cc1ccc2c(c1)OC(F)(F)O2 [Example 1082] | 1.5 |  | 5.2 |  |  |  | 0.58
17 | CC(c1ccc(OC(F)(F)F)cc1)N1C[C@H](CO)N(c2cc(=O)n(C)c3ccc(C#N)nc23)C[C@H]1C (single isomer, unassigned) [Example 1420] | 1.7 | 1.7 | 0.82 |  |  |  | 
